From US10022360B2, “Polymeric nanoparticles and methods of making and using same” (priority 2014, dated 2018)

What was measured:
in vivo = settings: mouse
Method: NPs from Example 4 were prepared on a larger scale for MTD studies.

[1] = Blood glucose after acute treatment, non-tumor bearing SCID mice; type: in vivo; settings: FIG. 10
[2] = type: in vivo; settings: BT-474 xenografts in SCID mice, FIG. 15

## NC1(c2ccc(-c3nc4ccn5c(=O)[nH]nc5c4cc3-c3ccccc3)cc2)CCC1 [COMPOUND A, 8-[4-(1-amino-cyclobutyl)phenyl]-9-phenyl-2H-[1,2,4]-triazolo-[3,4-f][1,6]-naphthyridin-3-one]
In vivo
  MTD: 480 mg/kg
[1]
  hyperglycemia following acute treatment: display hyperglycemia
[2]
  MTD dosing / toxicity (percent survival): exhibited toxicity
